One test deals with S. aureus 6538. The experiment in a line: Bacteriostatic effect. Format: cell-based. Particulars: for MIC: Staphylococcus aureus, 6538, 24 h, read-out: MIC, S. aureus 6538; for MIC, S. aureus 6538: 24 hr incubation at 37 °C.
The next test has as its target EcSecAN68 (Escherichia coli, UniProt P10408). The test can be described thus: biochemical. Details: species or system E. coli.
The subject of a further test is E. coli NR698. The experiment in a line: Bacteriostatic effect. Format: cell-based. The conditions noted are these: for MIC: Escherichia coli, NR698, 24 h, read-out: MIC, E. coli NR698; for MIC, E. coli NR698: 24 hr incubation at 37 °C, outer membrane leaky mutant.

In brackets after ≈: the same amount, converted by molar mass. Some results are limits rather than exact numbers.

The MIC is the least concentration at which growth counts as inhibited. Broadly, the IC50 is the concentration needed to halve the response being measured. A higher IC50 goes with weaker potency.

Sequence of EcSecAN68 (P10408 1-610): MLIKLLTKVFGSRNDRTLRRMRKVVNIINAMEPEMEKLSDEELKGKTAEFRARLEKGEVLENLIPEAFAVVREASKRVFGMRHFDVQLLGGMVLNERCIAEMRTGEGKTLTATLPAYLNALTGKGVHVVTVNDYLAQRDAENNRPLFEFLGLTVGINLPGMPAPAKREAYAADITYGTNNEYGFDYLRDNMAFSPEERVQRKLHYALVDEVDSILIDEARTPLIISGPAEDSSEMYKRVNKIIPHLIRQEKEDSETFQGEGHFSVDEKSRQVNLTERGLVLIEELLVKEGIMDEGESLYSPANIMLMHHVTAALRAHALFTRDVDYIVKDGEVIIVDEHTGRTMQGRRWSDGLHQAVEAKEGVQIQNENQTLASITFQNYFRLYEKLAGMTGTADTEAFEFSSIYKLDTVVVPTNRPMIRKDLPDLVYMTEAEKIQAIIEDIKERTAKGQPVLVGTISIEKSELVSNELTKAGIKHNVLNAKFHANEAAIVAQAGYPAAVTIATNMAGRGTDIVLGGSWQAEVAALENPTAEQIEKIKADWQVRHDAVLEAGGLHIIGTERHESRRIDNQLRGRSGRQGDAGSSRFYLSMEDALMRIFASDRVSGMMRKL

As for `FC(F)(F)c1cc(-c2nnc(S)[nH]2)cc(C(F)(F)F)c1` [Compound 5a, 5-(3,5-Bis(trifluoromethyl)phenyl)-4H-1,2,4-triazole-3-thiol], the MIC in the test with S. aureus 6538 and in the test with E. coli NR698 was over 250 µM throughout. On EcSecAN68, this compound displayed an IC50 of 60 µM.
`CSc1nc(C)cc(Sc2nnc(-c3cc(C(F)(F)F)cc(C(F)(F)F)c3)[nH]2)n1` [Compound 7a, 4-((5-(3,5-Bis(trifluoromethyl)phenyl)-4H-1,2,4-triazol-3-yl)thio)-6-methyl-2-(methylthio) pyrimidine]: the MIC with S. aureus 6538 stood at 18.8 µM (≈ 8.49 µg/mL); with E. coli NR698, 33.3 µM (≈ 15 µg/mL).
In the case of `CSc1nccc(Sc2nnc(-c3cc(C(F)(F)F)cc(C(F)(F)F)c3)[nH]2)n1` [Compound 7c, 4-((5-(3,5-Bis(trifluoromethyl)phenyl)-4H-1,2,4-triazol-3-yl)thio)-2-(methylthio) pyrimidine], the MIC in the test on S. aureus 6538 amounted to 62.5 µM (≈ 27.3 µg/mL); in the test on E. coli NR698, 50 µM (≈ 21.9 µg/mL). Also, the IC50 on EcSecAN68 worked out at 95 µM.
Take `CSc1nccc(Sc2nnc(-c3cc(C)cc(C)c3)[nH]2)n1` [Compound 7d, 4-((5-(3,5-Dimethylphenyl)-4H-1,2,4-triazol-3-yl)thio)-2-(methylthio) pyrimidine]: the MIC in the test on S. aureus 6538 and in the test on E. coli NR698 was over 250 µM in each case. In addition, the IC50 at EcSecAN68 is 65 µM.
Turning to `CSc1nc(Cl)cc(Sc2nnc(-c3cc(C)cc(C)c3)[nH]2)n1` [Compound 7e, 4-Chloro-6-((5-(3,5-dimethylphenyl)-4H-1,2,4-triazol-3-yl)thio)-2-(methylthio) pyrimidine], the MIC with S. aureus 6538 and in the test on E. coli NR698 was 50 µM (≈ 18.2 µg/mL) each time. At EcSecAN68, this compound came in with an IC50 of 30 µM.
`CSc1nc(Cl)cc(Sc2nnc(-c3cccc(F)c3)[nH]2)n1` [Compound 7f, 4-Chloro-6-((5-(3-fluorophenyl)-4H-1,2,4-triazol-3-yl)thio)-2-(methylthio) pyrimidine]: the results for the MIC with S. aureus 6538 and in the test with E. coli NR698 were 175 µM (≈ 61.9 µg/mL) and 200 µM (≈ 70.8 µg/mL), respectively. In addition, the IC50 against EcSecAN68 was under 50 µM.
For the compound `CSc1nc(Cl)cc(Sc2nnc(-c3cc(F)cc(F)c3)[nH]2)n1` [Compound 7g, 4-Chloro-6-((5-(3,5-difluorophenyl)-4H-1,2,4-triazol-3-yl)thio)-2-(methylthio) pyrimidine], the figures for the MIC with S. aureus 6538 and in the test with E. coli NR698 were 41.6 µM (≈ 15.5 µg/mL) and 50 µM (≈ 18.6 µg/mL), respectively. In addition, the IC50 on EcSecAN68 is over 100 µM.
Take `COc1cc(OC)cc(-c2nnc(Sc3cc(Cl)nc(SC)n3)[nH]2)c1` [Compound 7h, 4-Chloro-6-((5-(3,5-dimethoxyphenyl)-4H-1,2,4-triazol-3-yl)thio)-2-(methylthio) pyrimidine]: the MIC was over 250 µM in the test on S. aureus 6538 and 100 µM (≈ 39.6 µg/mL) in the test with E. coli NR698. This compound came in with an IC50 against EcSecAN68 of under 50 µM.
Regarding `CSc1nc(Cl)cc(Sc2nnc(-c3ccc(C(F)(F)F)cc3)[nH]2)n1` [Compound 7i, 4-Chloro-2-(methylthio)-6-((5-(4-(trifluoromethyl)phenyl)-4H-1,2,4-triazol-3-yl)thio) pyrimidine], the MIC was found to be 14.6 µM (≈ 5.9 µg/mL) in the test on S. aureus 6538 and 25 µM (≈ 10.1 µg/mL) in the test on E. coli NR698. Moreover, the IC50 against EcSecAN68 was under 50 µM.
Take `Cc1cc(C)cc(-c2nnc(Sc3cc(Cl)nc(Sc4ccccc4)n3)[nH]2)c1` [Compound 12b, 4-Chloro-6-((5-(3,5-dimethylphenyl)-4H-1,2,4-triazol-3-yl)thio)-2-(phenylthio) pyri-midine]: in the test with S. aureus 6538, the “MIC, S. aureus 6538” value came to 12.5 µM (≈ 5.32 µg/mL). Further, the “MIC, E. coli NR698” value in the test with E. coli NR698 was over 250 µM.
`OCCCCSc1nc(Cl)cc(Sc2nnc(-c3cc(C(F)(F)F)cc(C(F)(F)F)c3)[nH]2)n1` [Compound 12e, 4-((4-((5-(3,5-Bis(trifluoromethyl)phenyl)-4H-1,2,4-triazol-3-yl)thio)-6-chloropyri-midin-2-yl)thio) butan-1-ol]: in the test with S. aureus 6538, the “MIC, S. aureus 6538” value is 25.0 µM (≈ 13.2 µg/mL). For the same compound, in the test with E. coli NR698, the “MIC, E. coli NR698” value is 43.8 µM (≈ 23.2 µg/mL).
For the compound `Cc1cc(C)cc(-c2n[nH]c(Sc3nc(Cl)cc(Cl)n3)n2)c1` [Compound 16b, 4,6-Dichloro-2-((3-(3,5-dimethylphenyl)-1H-1,2,4-triazol-5-yl)thio) pyrimidine], the MIC with S. aureus 6538 is 100 µM (≈ 35.2 µg/mL); in the test with E. coli NR698, over 164 µM.

These data come from PMC4778717 (ChemMedChem, 2015).
